From US20230083012A1, “DIHYDROPYRIMIDINE DERIVATIVES AND USES THEREOF IN THE TREATMENT OF HBV INFECTION OR OF HBV-INDUCED DISEASES” (priority 2019, published 2023)

Legend:
HBV = test: Anti-HBV activity in HepG2.2.15 cells (HBV DNA in culture medium by qPCR); format: cell-based; conditions: Hepatitis B virus, HepG2.2.15, 144 h, HepG2.2.15 cells, 6 days treatment, HBV DNA in culture medium quantified by real-time PCR; read-out: EC50
In short: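 Secreted HBV DNA was measured by real-time PCR after 6-day compound exposure of HepG2.2.15 cells (2% FBS, 37 °C, re-dosed after 3 days), giving EC50 from 8-point 1:3 series starting at 10 or 1 uM. Cytotoxicity (CC50) run separately at lower cell density, top 100 uM.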

[1] = Cytotoxicity determination in HepG2.2.15 cells (CCK-8 cell viability); format: cell-based; conditions: human, 6 days treatment, CCK-8 assay, highest concentration 100 uM
In short: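 Viability measured by CCK-8 absorbance (450 nm, 630 nm reference, 2.5 h at 37° C) after six days of treatment, medium and compound renewed on day 3. Top concentration 100 uM, eight threefold dilutions in triplicate; cells plated at 5,000/well in 2% FBS medium; CC50 derived.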

Structure (SMILES) | EC50 (HBV) | CC50 at 6 days [1]
CCOC(=O)C1=C(CN2CC(F)(F)[C@H]3[C@@H]2CCN3CCC(C)(C)C(=O)O)NC(c2nccs2)=N[C@H]1c1ccc(F)c(F)c1Cl (single isomer, unassigned) [Compound 138, 4-((cis)-4-((6-(2-chloro-3,4-difluorophenyl)-5-(ethoxycarbonyl)-2-(thiazol-2-yl)-3,6-dihydropyrimidin-4-yl)methyl)-6,6-difluorohexahydropyrrolo[3,2-b]pyrrol-1(2H)-yl)-2,2-dimethylbutanoic acid] | 0.0005 µM | 14.5 µM
CCOC(=O)C1=C(CN2CC(F)(F)[C@H]3[C@@H]2CCN3CCC(C)(C)C(=O)O)NC(c2nccs2)=N[C@@H]1c1ccc(F)c(F)c1C (single isomer, unassigned) [Compound 139, 4-((cis)-4-((6-(3,4-difluoro-2-methylphenyl)-5-(ethoxycarbonyl)-2-(thiazol-2-yl)-3,6-dihydropyrimidin-4-yl)methyl)-6,6-difluorohexahydropyrrolo[3,2-b]pyrrol-1(2H)-yl)-2,2-dimethylbutanoic acid] | 0.0006 µM | 16.1 µM
CCOC(=O)C1=C(CN2CC(F)(F)[C@H]3[C@@H]2CCN3CCC(C)(C)C(=O)O)NC(c2nccs2)=N[C@@H]1c1ccc(F)c(F)c1F (single isomer, unassigned) [Compound 140, (cis)-4-(4-((5-(ethoxycarbonyl)-2-(thiazol-2-yl)-6-(2,3,4-trifluorophenyl)-3,6-dihydropyrimidin-4-yl)methyl)-6,6-difluorohexahydropyrrolo[3,2-b]pyrrol-1(2H)-yl)-2,2-dimethylbutanoic acid] | 0.007 µM | 36.7 µM
CCOC(=O)C1=C(CN2CC(F)(F)[C@H]3[C@@H]2CCN3CCC(C)(C)C(=O)O)NC(c2nccs2)=N[C@H]1c1ccc(F)cc1Cl (single isomer, unassigned) [Compound 141] | 0.0035 µM | 26.7 µM
CCOC(=O)C1=C(CN2CC(F)(F)[C@H]3[C@@H]2CCN3CCC(C)(C)C(=O)O)NC(c2nccs2)=N[C@H]1c1cccc(F)c1F (single isomer, unassigned) [Compound 142] | 0.008 µM | > 25 µM
CCOC(=O)C1=C(CN2CC(F)(F)[C@H]3[C@@H]2CCN3C[C@H]2C[C@H](C(=O)O)C2)NC(c2nccs2)=N[C@H]1c1cccc(F)c1C (single isomer, unassigned) [Compound 143A] | 0.0011 µM | 19.2 µM
CCOC(=O)C1=C(CN2CC(F)(F)[C@H]3[C@@H]2CCN3C[C@H]2C[C@@H](C(=O)O)C2)NC(c2nccs2)=N[C@H]1c1cccc(F)c1C (single isomer, unassigned) [Compound 143B] | 0.0046 µM | 22.8 µM
CCOC(=O)C1=C(CN2CC(F)(F)[C@H]3[C@@H]2CCN3CCCC(C)(C)C(=O)O)NC(c2nccs2)=N[C@H]1c1cccc(F)c1C (single isomer, unassigned) [Compound 144] | 0.0198 µM | 20.2 µM
CCOC(=O)C1=C(CN2CC(F)(F)[C@H]3[C@@H]2CCN3CCC(C)(C)C(=O)O)NC(c2nccs2)=N[C@H]1c1cccc(F)c1Cl (single isomer, unassigned) [Compound 145, 4-((cis)-4-((6-(2-chloro-3-fluorophenyl)-5-(ethoxycarbonyl)-2-(thiazol-2-yl)-3,6-dihydropyrimidin-4-yl)methyl)-6,6-difluorohexahydropyrrolo[3,2-b]pyrrol-1(2H)-yl)-2,2-dimethylbutanoic acid] | 0.0009 µM | 26 µM
CCOC(=O)C1=C(CN2CC(F)(F)[C@H]3[C@@H]2CCN3CCC(C)(C)C(=O)O)NC(c2nccn2C)=N[C@H]1c1cccc(F)c1C (single isomer, unassigned) [Compound 146, 4-((cis)-4-((5-(Ethoxycarbonyl)-6-(3-fluoro-2-methylphenyl)-2-(1-methyl-1H-imidazol-2-yl)-3,6-dihydropyrimidin-4-yl)methyl)-6,6-difluorohexahydropyrrolo[3,2-b]pyrrol-1(2H)-yl)-2,2-dimethylbutanoic acid] | 0.0131 µM | 32.2 µM
CCOC(=O)C1=C(CN2CC(F)(F)[C@H]3[C@@H]2CCN3CCC(C)C(=O)O)NC(c2nccs2)=N[C@H]1c1cccc(F)c1C (single isomer, unassigned) [Compound 147] | < 0.0005 µM | 34.6 µM
CCOC(=O)C1=C(CN2CC(F)(F)[C@H]3[C@@H]2CCN3CCOC(C)C(=O)O)NC(c2nccs2)=N[C@H]1c1cccc(F)c1C (single isomer, unassigned) [Compound 148] | 0.0073 µM | 34.1 µM
CCOC(=O)C1=C(CN2CC(F)(F)[C@H]3[C@@H]2CCN3C[C@@H](C)C(=O)O)NC(c2nccs2)=N[C@H]1c1cccc(F)c1Cl (single isomer, unassigned) [Compound 149A] | < 0.0005 µM | 21.8 µM
CCOC(=O)C1=C(CN2CC(F)(F)[C@H]3[C@@H]2CCN3C[C@H](C)C(=O)O)NC(c2nccs2)=N[C@H]1c1cccc(F)c1Cl (single isomer, unassigned) [Compound 149B] | 0.0019 µM | 34.1 µM
CCOC(=O)C1=C(CN2CC(F)(F)[C@H]3[C@@H]2CCN3c2ncc(C(=O)O)cn2)NC(c2nccs2)=N[C@H]1c1cccc(F)c1C (single isomer, unassigned) [Compound 150] | 0.057 µM | 15 µM
CCCOC(=O)C1=C(CN2CC(F)(F)[C@H]3[C@@H]2CCN3CCC(C)(C)C(=O)O)NC(c2nccs2)=N[C@H]1c1cccc(F)c1C (single isomer, unassigned) [Compound 151] | 0.0187 µM | 9.3 µM
Cc1c(F)cccc1[C@@H]1N=C(c2nccs2)NC(CN2CC(F)(F)[C@H]3[C@@H]2CCN3CCC(C)(C)C(=O)O)=C1C(=O)OC(C)C (single isomer, unassigned) [Compound 152] | 0.0618 µM | 12.7 µM
CCOC(=O)C1=C(CN2CC(F)(F)[C@H]3[C@@H]2CC(C)N3CCC(C)(C)C(=O)O)NC(c2nccs2)=N[C@H]1c1cccc(F)c1C (single isomer, unassigned) [Compound 153] | 0.006 µM | 21.8 µM
CCOC(=O)C1=C(CN2CC(F)(F)[C@H]3[C@@H]2CC2(CC2)N3CCC(C)(C)C(=O)O)NC(c2nccs2)=N[C@H]1c1cccc(F)c1C (single isomer, unassigned) [Compound 154] | 0.071 µM | 48.3 µM
CCOC(=O)C1=C(CN2CC(F)(F)[C@H]3[C@@H]2CCN3CC23CC(C(=O)O)(C2)C3)NC(c2nccs2)=N[C@H]1c1cccc(F)c1C (single isomer, unassigned) [Compound 155] | 0.0007 µM | 10 µM
CCOC(=O)C1=C(CN2CC(F)(F)[C@H]3[C@@H]2CC(=O)N3CCCC(C)(C)C(=O)O)NC(c2nccs2)=N[C@H]1c1cccc(F)c1C (single isomer, unassigned) [Compound 156] | 0.063 µM | 10.3 µM
[2H]C1([2H])C[C@H]2[C@@H](N1CCC(C)(C)C(=O)O)C(F)(F)CN2CC1=C(C(=O)OCC)[C@H](c2cccc(F)c2C)N=C(c2nccs2)N1 (single isomer, unassigned) [Compound 157] | 0.0008 µM | 24.8 µM
CCOC(=O)C1=C(CN2CC(F)(F)[C@H]3[C@@H]2CC(=O)N3[C@H]2CC[C@@H](C(=O)O)CC2)NC(c2nccs2)=N[C@H]1c1cccc(F)c1C (single isomer, unassigned) [Compound 158A] | 0.0531 µM | 27.9 µM
CCOC(=O)C1=C(CN2CC(F)(F)[C@H]3[C@@H]2CC(=O)N3[C@H]2CC[C@H](C(=O)O)CC2)NC(c2nccs2)=N[C@H]1c1cccc(F)c1C (single isomer, unassigned) [Compound 158B] | 0.0526 µM | 16.6 µM
CCOC(=O)C1=C(CN2CC(F)(F)[C@H]3[C@@H]2CCN3CC(C)(C)C(=O)O)NC(c2nccs2)=N[C@@H]1c1ccc(F)nc1C (single isomer, unassigned) [Compound 159, 3-((cis)-4-((5-(ethoxycarbonyl)-6-(6-fluoro-2-methylpyridin-3-yl)-2-(thiazol-2-yl)-3,6-dihydropyrimidin-4-yl)methyl)-6,6-difluorohexahydropyrrolo[3,2-b]pyrrol-1(2H)-yl)-2,2-dimethylpropanoic acid] | 0.0006 µM | 75.7 µM
COC(=O)C1=C(CN2CC(F)(F)[C@@H]3[C@H]2CON3CCC(C)(C)C(=O)O)NC(c2nccs2)=N[C@H]1c1cccc(F)c1C (single isomer, unassigned) [Compound 160] | 0.014 µM | 100 µM
COC(=O)C1=C(CN2CC(F)(F)[C@@H]3[C@H]2CON3CCC(C)(C)C(=O)O)NC(c2nccs2)=N[C@H]1c1ccc(F)c(F)c1C (single isomer, unassigned) [Compound 161, (cis)-4-(4-((6-(3,4-difluoro-2-methylphenyl)-5-(methoxycarbonyl)-2-(thiazol-2-yl)-3,6-dihydropyrimidin-4-yl)methyl)-6,6-difluorohexahydro-1H-pyrrolo[3,2-c]isoxazol-1-yl)-2,2-dimethylbutanoic acid] | 0.008 µM | > 50 µM
COC(=O)C1=C(CN2CC(F)(F)[C@@H]3[C@H]2CON3CCC(C)(C)C(=O)O)NC(c2nccs2)=N[C@H]1c1ccc(F)c(F)c1Cl (single isomer, unassigned) [Compound 162, (cis)-4-(4-((6-(2-chloro-3,4-difluorophenyl)-5-(methoxycarbonyl)-2-(thiazol-2-yl)-3,6-dihydropyrimidin-4-yl)methyl)-6,6-difluorohexahydro-1H-pyrrolo[3,2-c]isoxazol-1-yl)-2,2-dimethylbutanoic acid] | 0.005 µM | 50 µM
